Key:
[1] = tested on: SAGPY (Arrowhead (Pygmaea)); experiment: Postemergence weed control under flooded paddy conditions; format: in vivo, Sagittaria pygmaea; conditions: postemergence weeds, rated 3 to 4 weeks after treatment
Method in brief: (§1)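 Weeds 3 to 5 cm tall and rice seedlings at the 1.5 to 2.5 leaf stage were flooded, with water held 1.5 to 3 cm above the soil. Compounds in 50/50 v/v aqueous/acetone went into the flood water at about 0.0313 to 0.500 kg/ha. Visual 0-9 ratings versus control were made 3 to 4 weeks later.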

[2] = tested on: AMBEL (Ragweed, Common); experiment: Preemergence herbicidal evaluation; format: in vivo, Ambrosia artemisifolia; conditions: rated 4-5 weeks after treatment
Method in brief: (§2)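 Seeds were planted in potting soil in cups, then sprayed preemergence with the test compound in aqueous acetone at about 0.0156 to 0.500 kg per hectare. Cups were kept under greenhouse conditions and visually rated 4–5 weeks after treatment on a 0–9 scale against an untreated control.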

[3] = tested on: CYPSE (Flatsedge); experiment: Postemergence weed control under flooded paddy conditions; format: in vivo, Cyperus serotinus; conditions: postemergence weeds, rated 3 to 4 weeks after treatment
Method in brief: as §1

[4] = tested on: ZEAMX (Corn, Field); experiment: Postemergence herbicidal evaluation; format: in vivo, Zea mays; conditions: postemergence
Method in brief: (§3)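 First, seedlings were raised for around two weeks. Next, test material in 50/50 acetone/water containing 0.5% TWEEN 20 was sprayed through a nozzle at 40 psi, equivalent to about 0.0156–0.500 kg/ha. Finally, after 4–5 weeks in the greenhouse, plants were rated 0–9.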

[5] = tested on: ORYSAT (Rice, Tebonnet); experiment: Preemergence herbicidal evaluation; format: in vivo, Oryza sativa, (L.) Tebonnet; conditions: rated 4-5 weeks after treatment
Method in brief: as §2

[6] = tested on: GLXMAW (Soybean, Williams); experiment: Preemergence herbicidal evaluation; format: in vivo, Glycine max, (L.) Merr. cv Williams; conditions: rated 4-5 weeks after treatment
Method in brief: as §2

[7] = tested on: ORYSAT (Rice, Tebonnet); experiment: Postemergence herbicidal evaluation; format: in vivo, Oryza sativa, (L.) Tebonnet; conditions: postemergence
Method in brief: as §3

[8] = tested on: CYPSE (Flatsedge); experiment: Preemergence weed control under flooded paddy conditions; format: in vivo, Cyperus serotinus; conditions: rated 3-4 weeks after treatment
Method in brief: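 Flooded-pot preemergence screen with silt loam and seeds in the upper 0.5 cm. Dose about 0.0313 to 0.500 kg/ha, delivered into flood water; visual 0-9 score after 3 to 4 weeks.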

[9] = tested on: CASOB (Sicklepod); experiment: Postemergence herbicidal evaluation; format: in vivo, Cassia obtusifolia; conditions: postemergence
Method in brief: as §3

[10] = tested on: CYPIR (Rice Flatsedge); experiment: Postemergence weed control under flooded paddy conditions; format: in vivo, Cyperus iria; conditions: postemergence weeds, rated 3 to 4 weeks after treatment
Method in brief: as §1

[11] = tested on: SETVI (Foxtail, Green); experiment: Preemergence herbicidal evaluation; format: in vivo, Setaria viridis; conditions: rated 4-5 weeks after treatment
Method in brief: as §2

[12] = tested on: GALAP (Galium); experiment: Postemergence herbicidal evaluation; format: in vivo, Galium aparine; conditions: postemergence
Method in brief: as §3

[13] = tested on: CHEAL (Lambsquarters, Common); experiment: Postemergence herbicidal evaluation; format: in vivo, Chenopodium album; conditions: postemergence
Method in brief: as §3

C[C@H](C(=O)O)N1C(=O)CSC1=Nc1cc(-n2c(=O)cc(C(F)(F)F)n(C)c2=O)c(F)cc1Cl [Compound 70, 2-{{2-Chloro-5-[3,6-dihydro-3-methyl-2,6-dioxo-4-(trifluoromethyl)-1(2H)-pyrimidinyl]-4-fluoro-phenyl}imino}-α-methyl-4-oxo-3-thiazolidineacetic acid, D-]
4.0: Herbicidal rating SAGPY ([1]; Rate 0.0313 kg/ha) | Herbicidal rating SAGPY ([1]; Rate 0.0625 kg/ha) | Herbicidal rating SAGPY ([1]; Rate 0.1250 kg/ha) | Herbicidal rating SAGPY ([1]; Rate 0.2500 kg/ha) | ZEAMX herbicidal rating ([4]; rate 0.0158 kg/ha) | CHEAL herbicidal rating ([13]; rate 0.0158 kg/ha)
9.0: Preemergence herbicidal rating AMBEL ([2]; rate 0.2500 kg/ha) | Preemergence herbicidal rating SETVI ([11]; rate 0.1250 kg/ha) | Preemergence herbicidal rating SETVI ([11]; rate 0.2500 kg/ha) | CHEAL herbicidal rating ([13]; rate 0.0315 kg/ha)
5.0: ORYSAT herbicidal rating ([7]; rate 0.0630 kg/ha)
7.0: ZEAMX herbicidal rating ([4]; rate 0.0630 kg/ha)
2.5: ORYSAT herbicidal rating ([7]; rate 0.0158 kg/ha)
3.5: ORYSAT herbicidal rating ([7]; rate 0.0315 kg/ha)
1.0: Preemergence herbicidal rating ORYSAT ([5]; rate 0.1250 kg/ha)
5.5: ZEAMX herbicidal rating ([4]; rate 0.0315 kg/ha)
0.0: Preemergence herbicidal rating AMBEL ([2]; rate 0.0156 kg/ha) | Preemergence herbicidal rating AMBEL ([2]; rate 0.0313 kg/ha) | Preemergence herbicidal rating AMBEL ([2]; rate 0.0625 kg/ha) | Herbicidal rating CYPSE ([3]; Rate 0.0313 kg/ha) | Herbicidal rating CYPSE ([3]; Rate 0.0625 kg/ha) | Herbicidal rating CYPSE ([3]; Rate 0.1250 kg/ha) | Preemergence herbicidal rating ORYSAT ([5]; rate 0.0156 kg/ha) | Preemergence herbicidal rating ORYSAT ([5]; rate 0.0313 kg/ha) | Preemergence herbicidal rating ORYSAT ([5]; rate 0.0625 kg/ha) | Preemergence herbicidal rating GLXMAW ([6]; rate 0.0156 kg/ha) | Preemergence herbicidal rating GLXMAW ([6]; rate 0.0313 kg/ha) | Preemergence herbicidal rating GLXMAW ([6]; rate 0.0625 kg/ha) | Preemergence herbicidal rating GLXMAW ([6]; rate 0.1250 kg/ha) | CYPSE herbicidal effect rating ([8]; 0.0313 kg/ha) | CYPSE herbicidal effect rating ([8]; 0.0625 kg/ha) | CYPSE herbicidal effect rating ([8]; 0.1250 kg/ha) | CASOB herbicidal rating ([9]; rate 0.0158 kg/ha) | CASOB herbicidal rating ([9]; rate 0.0315 kg/ha) | Herbicidal rating CYPIR ([10]; Rate 0.0313 kg/ha) | Preemergence herbicidal rating SETVI ([11]; rate 0.0156 kg/ha) | Preemergence herbicidal rating SETVI ([11]; rate 0.0313 kg/ha) | GALAP herbicidal rating ([12]; rate 0.0158 kg/ha) | GALAP herbicidal rating ([12]; rate 0.0315 kg/ha)
3.0: Preemergence herbicidal rating AMBEL ([2]; rate 0.1250 kg/ha) | Herbicidal rating CYPSE ([3]; Rate 0.2500 kg/ha) | Preemergence herbicidal rating ORYSAT ([5]; rate 0.2500 kg/ha) | CYPSE herbicidal effect rating ([8]; 0.2500 kg/ha) | CASOB herbicidal rating ([9]; rate 0.0630 kg/ha) | GALAP herbicidal rating ([12]; rate 0.0630 kg/ha)
2.0: Preemergence herbicidal rating GLXMAW ([6]; rate 0.2500 kg/ha) | Herbicidal rating CYPIR ([10]; Rate 0.0625 kg/ha) | Herbicidal rating CYPIR ([10]; Rate 0.1250 kg/ha) | Herbicidal rating CYPIR ([10]; Rate 0.2500 kg/ha) | Preemergence herbicidal rating SETVI ([11]; rate 0.0625 kg/ha)

— patent publication US20020137929A1, “1 - (3-heterocyclylphenyl) isothiourea, -isourea, -guanidine and -amidine herbicidal agents” (Intellectual Property Department, BASF Aktiengesellschaft, priority 1998, published 2002)
